Test results taken from patent publication US8853359B2, “Endokinin C/D-derived peptides” (University of Miyazaki, priority 2009, dated 2014).

Assays:
[1] = system: formalin-induced pain behavior; test: formalin-induced pain behavior (flinching) after intrathecal pre-administration of peptide; assay type: in vivo, rat
Description: In Example 5, 10^−3M (10 nmol/10 μl) D-EKC/D (3), (5), or (7), Spantide I, or saline (10 μl) was administered to intrathecally catheterized rats via catheters and then 4 hours later, 50 μl of 2% formalin was administered subcutaneously to hind paws of rats. The number of flinching (pain behavior) was determined for 60 minutes after formalin administration, so that the degree of pain could be evaluated. During the 10-minute period after formalin administration (referred to as phase I), pain behavior was measured once every 2 minutes (1 minute per measurement). During the period from 10 minutes to 60 minutes after formalin administration (referred to as phase II), pain behavior was measured once every 5 minutes (1 minute per measurement), so that the degree of pain could be evaluated. During phase I, behavior (phasic pain) resulting from chemical stimulation accompanying formalin administration was observed. During phase II, tonic pain following the phasic pain was observed.
The horizontal axis indicates time (minutes) after formalin administration and the vertical axis indicates the measured number of pain behavior per minute.

[2] = system: substance P-induced scratching behavior; test: substance P-induced scratching behavior after intrathecal pre-administration of test peptide; assay type: in vivo, rat
Description: In Example 1, 10^−3M (10 nmol/10 μl) EKC/D or D-EKC/D (1), (2) or (3) was administered to intrathecally catheterized rats via catheters. After the predetermined time periods denoted on the horizontal axis in FIG. 1, the numbers of scratching events (scratching behavior) induced by intrathecal administration of 10^−3M (10 nmol/10 μl) substance P (hereafter, referred to as “SP”) were determined. Here, the expression “10^−3M (10 nmol/10 μl) EKC/D or D-EKC/D (1), (2), or (3) was administered” refers to a situation in which 10 μl in total of a solution (that is, 10^−3M solution) containing 10 nmol of EKC/D or D-EKC/D (1), (2), or (3) was all administered. The expression, “ . . . administration of 10^−3M substance P (10 nmol/10 μl)” refers to a situation in which 10 μl in total of a solution (that is, 10^−3M solution) containing 10 nmol of the substance was all administered. The same similarly applies below.
Meanwhile, saline (10 μl) was intrathecally administered to intrathecally catheterized rats via catheters and then, after 30 minutes, 10^−3M SP (10 nmol/10 μl) was intrathecally administered to the rats. The number of the thus induced scratching events was determined to be the number of scratching events in the control group. The control group is denoted with saline-4-SP in FIG. 1.
The vertical axis of the graph in FIG. 1 indicates changes in the numbers of scratching events (represented by relative values) due to administration of 10^−3M EKC/D or D-EKC/D (1), (2), or (3) when the number of scratching events (of untreated rats in a control group) induced by intrathecal administration of 10^−3M substance P was determined to be 100%. Meanwhile, the horizontal axis indicates the intervals between the administration of EKC/D, D-EKC/D (1), (2), or (3) and 10^−3M substance P. […]
The test was conducted with procedures similar to those in Example 1, except for 4 hours of interval between the administration of each test peptide and the administration of substance P. The concentration of each test peptide and that of substance P for administration were determined to be 10^−3M (10 nmol/10 μl), similarly to Example 1. The number of scratching events in the control group was determined with procedures similar to those in Example 1, such that substance P was administered at 30 minutes after administration of saline (10 μl) and then the number was determined.

Ala-Tyr-Gln-Leu-Glu-His-Thr-Phe-Gln-DTrp-Leu-Leu-NH2 (AYQLEHTFQXLL; HELM PEPTIDE1{A.Y.Q.L.E.H.T.F.Q.[dW].L.L.[am]}$$$$V2.0; N-terminus assumed; SMILES CC(C)C[C@H](NC(=O)[C@H](CC(C)C)NC(=O)[C@@H](Cc1c[nH]c2ccccc12)NC(=O)[C@H](CCC(N)=O)NC(=O)[C@H](Cc1ccccc1)NC(=O)[C@@H](NC(=O)[C@H](Cc1c[nH]cn1)NC(=O)[C@H](CCC(=O)O)NC(=O)[C@H](CC(C)C)NC(=O)[C@H](CCC(N)=O)NC(=O)[C@H](Cc1ccc(O)cc1)NC(=O)[C@H](C)N)[C@@H](C)O)C(N)=O) [D-EKC/D (3)]
numbers of pain behavior during phase I ([1]; 10^-3M (10 nmol/10 μl) peptide intrathecal, 2% formalin 4 hours later, 0-10 minutes after formalin): significantly decreased | numbers of pain behavior during phase II ([1]; 10^-3M (10 nmol/10 μl) peptide intrathecal, 2% formalin 4 hours later, 10-60 minutes after formalin): significantly decreased | suppressing effects on formalin-induced pain behavior compared with Spantide I ([1]; 10^-3M intrathecal, formalin 4 hours later): sustained longer compared with the effects of Spantide I | number of scratching events induced by substance P, relative to control group (saline+SP = 100%) ([2]; 10^-3M (10 nmol/10 μl) peptide intrathecal, 10^-3M SP 30 minutes after peptide, FIG. 1): about 20% | number of scratching events induced by substance P, relative to control group ([2]; 10^-3M peptide intrathecal, administration interval of 45 minutes, FIG. 1): almost the same effects were exhibited | suppressive effects on substance P-induced scratching behavior ([2]; Example 1, intervals of 4 hours, 8 hours, and 14 hours between peptide and SP, both 10^-3M): significant suppressive effects | scratching behavior induced by substance P ([2]; Example 2, FIG. 2, 10^-3M peptide, SP 4 hours after peptide, control about 380 scratching): almost never induced | suppressive effects on scratching as administration interval is prolonged ([2]; Example 2, FIG. 2, 10^-3M peptide, interval 8 hours and then 14 hours): gradually attenuated | scratching behavior induced by substance P / suppressive effects ([2]; Example 3, FIG. 3, 10^-3M peptide, SP 4 hours after peptide, control 380 scratching): almost never induced
